Source: patent US20190298735A1, “TREATMENT AND PREVENTION OF CLOSTRIDIUM DIFFICILE COLITIS USING MISOPROSTOL” (Vanderbilt University, priority 2016, published 2019)
Entries after “also recorded” stand apart in the source; their conditions may differ.

Legend:
[1] = tested on: NAP1 C. difficile strain M7404; type: in vivo, C57BL/6 mice; details: mice, NSAID given before or after infection, clinical NAP1/027 isolate; indomethacin 10 mg/kg gavage, ibuprofen 5 mg/kg in drinking water
C. difficile [2] = assay: Tissue PGE2 (ELISA) and histological colitis score in C. difficile infected mice treated with indomethacin; type: in vivo; details: for tissue damage and acute inflammation (colitis): blinded histological score: edema, neutrophilic inflammation, epithelial damage; for tissue PGE2 levels: indomethacin gavage once daily until day +4, ELISA
Method: FIG. 3. […] (A) Mice were infected with C. difficile and treated with indomethacin by gavage once daily starting on the day of infection until mice were euthanized on day +4. Tissue PGE2 concentrations were measured by ELISA. n=5 mice per group. (B) Histological assessment of colitis was performed in a blinded fashion. The score incorporates edema, neutrophilic inflammation, and epithelial damage. (C and D) Tissue cytokine and chemokine concentrations were measured by ELISA. n=5 mice per group. *P<0.05.

[3] = molecular target: T1, prostaglandin E2 receptor 4 (EP4) receptor (Mus musculus, UniProt P32240); details: another mouse model, oral administration; cited from earlier work
T1 construct: endogenous in cells; host or cells: mouse, in vivo (colon tissue); result quoted from Watanabe et al. 2015
T1 sequence (P32240 whole entry): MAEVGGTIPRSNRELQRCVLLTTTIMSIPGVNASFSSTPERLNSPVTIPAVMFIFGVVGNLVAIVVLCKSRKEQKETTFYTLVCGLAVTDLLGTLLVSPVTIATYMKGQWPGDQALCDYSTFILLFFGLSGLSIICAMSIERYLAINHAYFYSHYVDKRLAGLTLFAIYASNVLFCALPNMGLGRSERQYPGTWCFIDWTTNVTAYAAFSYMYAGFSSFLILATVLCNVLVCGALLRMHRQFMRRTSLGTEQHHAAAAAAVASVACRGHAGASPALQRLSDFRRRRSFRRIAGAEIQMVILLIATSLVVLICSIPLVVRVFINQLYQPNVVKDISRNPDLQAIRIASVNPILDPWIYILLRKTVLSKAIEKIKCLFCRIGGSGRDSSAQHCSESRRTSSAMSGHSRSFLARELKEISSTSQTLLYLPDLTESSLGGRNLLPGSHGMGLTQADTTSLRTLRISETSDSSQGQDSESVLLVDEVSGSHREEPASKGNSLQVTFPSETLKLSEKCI

[4] = molecular target: T1, prostaglandin E2 receptor 4 (EP4) receptor; details: oral administration, mouse model; cited from earlier work
C. difficile [5] = details: C. difficile-infected mice, cited from earlier work
[6] = mice; cited from earlier work
[7] = tested on: human esophageal epithelial (HET-1A) cells; details: cited from earlier work
esophageal ulcer = details: rats, cited from earlier work
strain M7404 = assay: Misoprostol in indomethacin-exposed CDI mice; type: in vivo, Female C57BL/6 mice
NAP1/BI/027 strain M7404 = assay: Misoprostol in acute CDI mouse model (survival, FITC-dextran intestinal permeability, diarrhea); type: in vivo, mice; details: for CDI severity: mice, M7404 spores, daily misoprostol IP vs vehicle
C. difficile strain 630 = assay: Colonization levels of C. difficile in the cecum of infected mice; type: in vivo; details: strain 630, 96 hr post infection, misoprostol vs vehicle
Method: FIG. 5. […] (A) Mice were infected by gavage with 10^6 spores of the NAP1/BI/027 strain […] and treated daily with the PGE analogue misoprostol (or vehicle) by intraperitoneal (IP) injection. n=5 per group. (B) To assess intestinal permeability mice were infected with […] of […] and given misoprostol 20 μg/mouse by IP injection 30 min before infection, 24 hr post-infection and at the time of FITC-dextran treatment. 2 d post infection mice were gavaged with FITC-dextran or vehicle control, then euthanized 4 hr later and concentrations of FITC-dextran in plasma were determined (*P<0.05). (C) Colonization levels of C. difficile strain 630 in the cecum for infected mice exposed to misoprostol or vehicle 96 hr post infection (*P<0.05).

[8] = human; cited from earlier work
PGE2 EP receptors = details: cited from earlier work

Compound: COc1ccc2c(c1)c(CC(=O)O)c(C)n2C(=O)c1ccc(Cl)cc1 [indomethacin]
- mortality in CDI [1]: higher mortality
- tissue damage and acute inflammation (colitis) (C. difficile [2]): induced more tissue damage and acute inflammation
- tissue damage and acute inflammation (colitis) (C. difficile [2]; listed as Indomethacin): worsens colitis
- tissue PGE2 levels (C. difficile [2]): suppressed tissue PGE2 levels
- tissue PGE2 levels (C. difficile [2]; listed as Indomethacin): inhibits PGE2 production

Compound: Cc1cccc([C@@H](C)[C@H](O)/C=C/[C@@H]2[C@@H]3[C@H](C[C@H]2O)O/C(=C\CCCc2nn[nH]n2)C3(F)F)c1 [KAG-308]
- colorectal carcinogenesis [3]: prevented colorectal carcinogenesis
- onset of dextran sulfate sodium-induced colitis and mucosal healing [4]: suppressed onset of dextran sulfate sodium-induced colitis and promoted mucosal healing

Compound: CN[C@H](CC(C)C)C(=O)N[C@H]1C(=O)N[C@@H](CC(N)=O)C(=O)N[C@H]2C(=O)N[C@H]3C(=O)N[C@H](C(=O)N[C@H](C(=O)O)c4cc(O)cc(O)c4-c4cc3ccc4O)[C@H](O)c3ccc(c(Cl)c3)Oc3cc2cc(c3O[C@@H]2O[C@H](CO)[C@@H](O)[C@H](O)[C@H]2O[C@H]2C[C@](C)(N)[C@H](O)[C@H](C)O2)Oc2ccc(cc2Cl)[C@H]1O [vancomycin]
- relapse of colitis after treatment (C. difficile [5]; with increased colonization levels and toxin production): gradual return of colitis by day 16
- resolution of colitis (C. difficile [5]): accelerates resolution of colitis

Compound: CCCCC[C@H](O)/C=C/[C@H]1[C@H](O)CC(=O)[C@@H]1C/C=C\CCCC(=O)O [PGE2, Prostaglandin E2]
- colitis induced by DSS [6]: significantly improved colitis

Compound: Nc1ncnc2c1ncn2[C@@H]1O[C@@H]2COP(O)(=S)O[C@H]2[C@H]1O (some centres unmarked) [Sp-cAMP]
- action on the effects of misoprostol (cAMP, CREB phosphorylation, VEGF expression) [7]: mimicked

Compound: Nc1ncnc2c1ncn2[C@@H]1O[C@@H]2COP(O)(=S)O[C@H]2[C@H]1O (some centres unmarked) [Rp-cAMP]
- action on the effects of misoprostol (cAMP, CREB phosphorylation, VEGF expression) [7]: blocked

Compound: CCCC[C@](C)(O)C/C=C/[C@H]1[C@H](O)CC(=O)[C@@H]1CCCCCCC(=O)OC (racemic) [misoprostol, (11a, 13E)-(±)-11,16-dihydroxy-16-methyl-9-oxoprost-13-en-1-oic acid methyl ester]
- CREB phosphorylation, VEGF expression and angiogenesis (esophageal ulcer; esophageal ulcer): enhanced phosphorylation of CREB, stimulated VEGF expression and angiogenesis
- esophageal ulcer healing (esophageal ulcer): accelerated esophageal ulcer healing
- CDI in indomethacin-exposed mice (strain M7404; INDO 10 mg/kg days −2 and −1, 1×10^4 spores M7404, 20 mg misoprostol i.p. daily): improves CDI
- survival, Log-rank (Mantel-Cox) test (strain M7404; mouse, in vivo, ip): not statistically significant
- diarrhea (NAP1/BI/027 strain M7404; infected mice, misoprostol vs vehicle/placebo): reduced diarrhea; also recorded: fared significantly better
- CDI severity (NAP1/BI/027 strain M7404): reduced CDI severity
- CDI severity (NAP1/BI/027 strain M7404; listed as Misoprostol): reduces CDI severity
- death / survival (NAP1/BI/027 strain M7404; mouse, in vivo, ip): prevented death; also recorded: fared significantly better
- C. difficile colonization levels (C. difficile strain 630): reduced C. difficile colonization levels
- protection of colonic mucosa against mucosal insults [8]: potently protects human colonic mucosa
- VEGF expression [7]: stimulated VEGF expression
- increase of intracellular cAMP levels [7]: 163 fold
- phosphorylation of CREB [7]: induced phosphorylation of CREB
- binding to PGE2 EP receptors (PGE2 EP receptors): binds all 4 of the PGE2 EP receptors
